Results reported in US20260199533A1, “RA[…]-AFFINITY COMPOUND AND USE THEREOF” (Osaka University, priority 2022, published 2026).

How the values were obtained:
[1] = tested on: Human pancreatic cancer cells (PANC-1); assay: Inhibitory effect on tumor growth in human pancreatic cancer-transplanted mice; type: in vivo, nude mice; conditions: PANC-1 subcutaneous, intravenous 1 MBq per mouse, N=4, three weeks, vs saline control
Procedure: (§1) Human pancreatic cancer cells (PANC-1) were subcutaneously administered at 1×10^7 cells to nude mice (male, 6-weeks old) to generate pancreatic cancer-transplanted mice. The mice were intravenously injected with ^211At(C1)-Pip-6Qui-FAPI(H) (PIP(1,H), Example 2) or 211At(C1)-PEG2-6Qui-FAPI(H) (PEG(1,H), Example 6) at 1 MBq per mouse (N=4). Physiological saline was administered to the control group (Control (Saline)) (N=4).

[2] = tested on: FAPα/MDA-MB-231 cells; assay: Uptake of 211At-labeled FAPI derivatives into MDA-MB-231 and FAPα/MDA-MB-231 cells; type: cell-based, human; conditions: for uptake level in dependence on FAPα expression: MDA-MB-231 (low FAPα) vs FAPα/MDA-MB-231 (high FAPα), 30 min; for competitive inhibition by addition of the corresponding unlabeled form: MDA-MB-231 / FAPα/MDA-MB-231 cells
Description: (§2) Human non-small cell lung cancer cell lines (A549), human triple-negative (estrogen and progesterone receptors which are hormone receptors, as well as HER2 protein, are all absent) breast cancer cell lines (MDA-MB-231), and A549 cells and MDA-MB-231 cells, each transfected with the human fibroblast activation protein (FAPα) gene (FAPα/A549, FAPα/MDA-MB-231) were used in the experiments as cancer cells with low FAPα expression and cancer cells with high FAPα expression (mimic after high-order histogenesis), respectively. For each type, the cells were seeded in a 24-well plate at 2×10^4 cells per well and cultured for 2 days. An appropriate amount of two ^211At-labeled FAPI derivatives (PIP(1,H) […], PIP-amide(1,H) (Example 14)) were added to each type of the above cells, respectively, and cultured for 30 min. The supernatant was removed by aspiration, and the cells were washed with PBS(−), and then 0.1N sodium hydroxide solution was added to lyse the cells, and the intracellular radioactivity was measured by a gamma counter. The radioactivity count was corrected per unit protein amount (counts/μg protein). […] Considering that the uptake level into human embryonic kidney-derived cells (HEK293) was about 20 counts/μg protein at most, based on the results of PIP(1,F) and the like in Experimental Example 1, it can be said that cancer cells take up more FAPI derivatives than non-cancer cells.

[3] = Changes in body weight of human pancreatic cancer-transplanted mice; type: in vivo, nude mice; conditions: intravenous 1 MBq per mouse, N=4, three weeks, vs saline control
Procedure: as §1

[4] = tested on: FAPα/A549 cells; assay: Uptake of 211At-labeled FAPI derivatives into A549 and FAPα/A549 cells; type: cell-based, human; conditions: for uptake level in dependence on FAPα expression: A549 (low FAPα) vs FAPα/A549 (high FAPα), 30 min; for competitive inhibition by addition of the corresponding unlabeled form: A549 / FAPα/A549 cells
Description: as §2

[5] = tested on: FAPα/293 cells (293 cells transfected with the human fibroblast activation protein (FAPα) gene); assay: Uptake of 211At-labeled FAPI derivatives into FAPα/293 cells; type: cell-based; conditions: cultured 30 min, gamma counter, rank order of the three highest of eight derivatives
Procedure: Human embryonic kidney 293 cells (HEK293), and 293 cells transfected with the human fibroblast activation protein (FAPα) gene (FAPα/293) were used in the experiment as FAPα-negative and FAPα-positive cells, respectively. For each type, the cells were seeded in a 24-well plate at 2×10^4 cells per well and cultured for 2 days. An appropriate amount of eight ^211At-labeled FAPI derivatives (Gly(1,F) (Example 8), PEG(1,F) (Example 5), PIP(1,F) (Example 1), PIP(1,H)-8Qui (Example 3), Ac-PIP (Example 13), PEG4(1,H) (Example 7), GlcN-PEG(1,F) (Example 11), PEG(1,H) (Example 6)) were added to each type of the above cells, respectively, and cultured for 30 min. The supernatant was removed by aspiration, and then 0.1N sodium hydroxide solution was added to lyse the cells, and the intracellular radioactivity was measured by a gamma counter. The radioactivity count was corrected per unit protein amount (counts/μg protein). The three compounds with the highest uptake levels into FAPα-positive cells were PIP(1,F)>PIP(1,H)-8Qui>PEG(1,H), in order of […] level.

[6] = Stability of the radiolabeled product; type: physicochemical; conditions: alkylene chain length 0, after purification

| Structure (SMILES) | inhibitory effect on tumor growth (tumor size) [1] | uptake level in dependence on FAPα expression [2] | competitive inhibition by addition of the corresponding unlabeled form [2] | changes in body weight [3] | uptake level in dependence on FAPα expression [4] | competitive inhibition by addition of the corresponding unlabeled form [4] | uptake levels into FAPα-positive cells (intracellular radioactivity) [5] | stability of the product [6] | further results |
| --- | --- | --- | --- | --- | --- | --- | --- | --- | --- |
| N#C[C@@H]1CCCN1C(=O)CNC(=O)c1ccnc2ccc(OCCCN3CCN(C(=O)Cc4ccc([211At])cc4)CC3)cc12 [Example 2, ^211At(C1)-Pip-6Qui-FAPI(H)] | superior inhibitory effects on tumor growth compared to the control group | uptake level increased as FAPα expression increased | could be suppressed to a low level | comparable to that of the control group | uptake level increased as FAPα expression increased | could be suppressed to a low level |  |  | uptake level (intracellular radioactivity), comparison between derivatives ([2]; MDA-MB-231 and FAPα/MDA-MB-231 cells, cultured 30 min): slightly higher than that of PIP-amide(1,H); uptake level (intracellular radioactivity), comparison between derivatives ([4]; A549 and FAPα/A549 cells, cultured 30 min): slightly higher than that of PIP-amide(1,H) |
| N#C[C@@H]1CCCN1C(=O)CNC(=O)c1ccnc2c(OCCCN3CCN(C(=O)Cc4ccc([211At])cc4)CC3)cccc12 [Example 3, ^211At(C1)-Pip-8Qui-FAPI(H)] |  |  |  |  |  |  | PIP(1,F)>PIP(1,H)-8Qui>PEG(1,H) |  |  |
| N#C[C@@H]1CCCN1C(=O)CNC(=O)c1ccnc2ccc(OCCOCCNC(=O)Cc3ccc([211At])cc3)cc12 [Example 6, ^211At(C1)-PEG2-6Qui-FAPI(H)] | superior inhibitory effects on tumor growth compared to the control group |  |  | comparable to that of the control group |  |  | PIP(1,F)>PIP(1,H)-8Qui>PEG(1,H) |  |  |
| N#C[C@@H]1CC(F)(F)CN1C(=O)CNC(=O)c1ccnc2ccc(OCCCN3CCN(C(=O)CCCO[C@@H]4OC(CO)[C@@H](O)C(O)[C@@H]4NC(=O)c4ccc([211At])cc4)CC3)cc12 (stereo partly drawn) [Example 9, ^211At(CO)-GlcN-Pip-6Qui-FAPI(F)] |  |  |  |  |  |  |  | low |  |
| N#C[C@@H]1CCCN1C(=O)CNC(=O)c1ccnc2ccc(OCCCN3CCN(C(=O)CCCO[C@@H]4OC(CO)[C@@H](O)C(O)[C@@H]4NC(=O)c4ccc([211At])cc4)CC3)cc12 (stereo partly drawn) [Example 10, ^211At(C0)-GlcN-Pip-6Qui-FAPI(H)] |  |  |  |  |  |  |  | low |  |
| N#C[C@@H]1CCCN1C(=O)CNC(=O)c1ccnc2ccc(OCCC(=O)N3CCN(C(=O)Cc4ccc([211At])cc4)CC3)cc12 [Example 14, ^211At(C1)-Pip-amido-6Qui-FAPI(H)] |  | uptake level increased as FAPα expression increased | could be suppressed to a low level |  | uptake level increased as FAPα expression increased | could be suppressed to a low level |  |  |  |
